Reference: patent US7868204B2, “Inhibitors of histone deacetylase” (MethylGene Inc., priority 2001, dated 2011)
Where two headings read alike, the source gives them in different places.

What was measured:
[1] = target: T1, cloned recombinant human HDAC-1 (Homo sapiens, UniProt Q13547); assay: Human HDAC-1 enzyme inhibition, Assay 1 ([3H]-acetylated histone substrate, scintillation counting); format: biochemical
T1 construct: made in house; host or cells: Baculovirus insect cell expression system
How it was run: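 Recombinant human HDAC-1 from baculovirus-infected insect cells, preincubated with compound 30 min at 4° C. before reaction. Released [3H]-acetic acid extracted with ethyl acetate and counted by scintillation. IC50 taken from dose-response curves as concentration giving half-maximal inhibition.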

HCT116 cells = assay: MTT assay; format: cell-based; conditions: Homo sapiens, HCT116 cells, 72 hours
How it was run: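 Cells plated one day before dosing, then exposed to compound 72 h at 37 °C, 5% CO2. MTT at 0.5 mg/ml final for 4 h, solubilized in DMF/SDS buffer pH 4.7; OD converted to cell number from a standard growth curve.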

[2] = test system: acetylated histone H-4 in T24 human bladder cancer cells; assay: Histone H4 acetylation in whole cells by immunoblots; format: cell-based; conditions: 16 h
How it was run: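 T24 cells were treated with HDAC inhibitors for 16 h; […] total histone protein was resolved by SDS/PAGE and immunoblotted with polyclonal anti-acetylated H4 antibody. ECL detection, with signal quantified by densitometry.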

[3] = Table 5F, read-out: Human HDAC-1 IC50
[4] = T-24, Table 5F, read-out: H4 Ac (T24) EC50
[5] = Table 5b, read-out: Human HDAC-1 IC50
[6] = T-24, Table 5b, read-out: H4Ac (T24) EC50
[7] = Table 5d, read-out: HDAC-1 IC50
[8] = T-24, Table 5d, read-out: H4Ac(T24) EC50

T1 sequence (Q13547 whole entry): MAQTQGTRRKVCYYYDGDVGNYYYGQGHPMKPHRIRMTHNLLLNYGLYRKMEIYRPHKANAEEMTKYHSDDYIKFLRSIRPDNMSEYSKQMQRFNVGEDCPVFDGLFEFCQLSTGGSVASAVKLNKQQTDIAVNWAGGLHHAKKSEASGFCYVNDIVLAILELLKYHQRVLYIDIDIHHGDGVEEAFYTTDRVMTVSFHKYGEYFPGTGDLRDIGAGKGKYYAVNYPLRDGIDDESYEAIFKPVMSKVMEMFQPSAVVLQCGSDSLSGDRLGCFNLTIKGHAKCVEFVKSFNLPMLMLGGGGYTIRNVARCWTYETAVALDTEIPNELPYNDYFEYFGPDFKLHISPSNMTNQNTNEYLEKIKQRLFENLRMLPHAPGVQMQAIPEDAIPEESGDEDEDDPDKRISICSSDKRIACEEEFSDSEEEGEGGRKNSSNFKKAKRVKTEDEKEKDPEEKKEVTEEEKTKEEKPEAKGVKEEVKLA

Row | Compound | IC50 [1, 3] | IC50 (HCT116 cells; HCT-116, 72 h, Table 5F) | EC50 [2, 4] | IC50 [1, 7] | IC50 (HCT116 cells; HCT-116, Table 5d) | EC50 [2, 8] | other results
1 | CN(C)c1nc2cc(NCc3ccc(C(=O)Nc4ccccc4N)cc3)ccc2s1 [Cpd 448, N-(2-Amino-phenyl)-4-[(2-dimethylamino-benzothiazol-5-ylamino)-methyl]-benzamide] | 3000 nM | 200 nM | 2000 nM | – | – | – | –
2 | Nc1ccccc1NC(=O)c1ccc(CNc2ccc3[nH]c(SCc4cccnc4)nc3c2)cc1 [Cpd 451] | 4000 nM | 200 nM | 3000 nM | – | – | – | –
3 | Nc1ccccc1NC(=O)c1ccc(CNc2ccc3oc(SCc4cccnc4)nc3c2)cc1 [Cpd 452, N-(2-Amino-phenyl)-4-{[2-(pyridin-3-ylmethylsulfanyl)-benzooxazol-5-ylamino]-methyl}-benzamide] | 3000 nM | 300 nM | 2000 nM | – | – | – | –
4 | COc1ccc(NCc2ccc(C(=O)Nc3cc(F)c(F)cc3N)cc2)cc1OC [Cpd 454, N-(2-Amino-4,5-difluoro-phenyl)-4-[(3,4-dimethoxy-phenylamino)-methyl]-benzamide] | 4000 nM | 2000 nM | 5000 nM | – | – | – | –
5 | COCCN1C(=O)c2ccc(NCc3ccc(C(=O)Nc4ccccc4N)cc3)cc2C1=O [Cpd 458, N-(2-Amino-phenyl)-4-([2-(2-methoxy-ethyl)-1,3-dioxo-2,3-dihydro-1H-isoindol-5-ylamino]-methyl}-benzamide] | 3000 nM | 300 nM | 2000 nM | – | – | – | –
6 | CN1C(=O)C2(OCCO2)c2cc(NCc3ccc(C(=O)Nc4ccccc4N)cc3)ccc21 [Cpd 459] | 4000 nM | 300 nM | 1000 nM | – | – | – | –
7 | Nc1ccccc1NC(=O)c1ccc(NCCNc2ccccc2)nc1 [Cpd 460, N-(2-Amino-phenyl)-6-(2-phenylamino-ethylamino)-nicotinamide] | 3000 nM | 1000 nM | 1000 nM | – | – | – | –
8 | Cn1c(=O)c2cc(NCc3ccc(C(=O)Nc4ccccc4N)cc3)ccc2n(C)c1=O [Cpd 461, N-(2-Amino-phenyl)-4-[(1,3-dimethyl-2,4-dioxo-1,2,3,4-tetrahydro-quinazolin-6-ylamino)-methyl]-benzamide] | 1400 nM | 300 nM | 1000 nM | – | – | – | –
9 | Cn1c2ccc(NCc3ccc(C(=O)Nc4ccccc4N)cc3)cc2c2nc3ccccc3nc21 [Cpd 462] | 4000 nM | 300 nM | 1000 nM | – | – | – | –
10 | Nc1ccccc1NC(=O)c1ccc(-c2ccc(CNCc3ccccn3)s2)cc1 [Cpd 466] | 3000 nM | 2000 nM | 1000 nM | – | – | – | –
11 | Nc1ccccc1NC(=O)c1ccc(CNc2ncc(Br)s2)cc1 [Cpd 467, N-(2-Amino-phenyl)-4-[(5-bromo-thiazol-2-ylamino)-methyl]-benzamide] | 4000 nM | 400 nM | 2000 nM | – | – | – | –
12 | Nc1nc(NCCCc2ccccc2)nc(NCc2ccc(C(=O)Nc3ccccc3N)cc2)n1 [Cpd 470] | – | – | – | – | – | – | IC50 [1, 5]: 2000 nM; IC50 (HCT116 cells; HCT-116, 72 h, Table 5b): 700 nM; EC50 [2, 6]: 3000 nM
13 | Nc1ccccc1NC(=O)c1ccc(CNc2nc(NCCc3ccccc3)nc(NC3CC3)n2)cc1 [Cpd 471] | – | – | – | – | – | – | IC50 [1, 5]: 400 nM; IC50 (HCT116 cells; HCT-116, 72 h, Table 5b): 1000 nM; EC50 [2, 6]: 3000 nM
14 | Nc1ccccc1NC(=O)c1ccc(CNc2nc(NCC3CC3)nc(NC3Cc4ccccc4C3)n2)cc1 [Cpd 472] | – | – | – | – | – | – | IC50 [1, 5]: 3000 nM; IC50 (HCT116 cells; HCT-116, 72 h, Table 5b): 1000 nM; EC50 [2, 6]: 1000 nM
15 | COCCNc1nc(NCCc2ccccc2)nc(NCc2ccc(C(=O)Nc3ccccc3N)cc2)n1 [Cpd 474] | – | – | – | – | – | – | IC50 [1, 5]: 3000 nM; IC50 (HCT116 cells; HCT-116, 72 h, Table 5b): 1000 nM; EC50 [2, 6]: 1000 nM
16 | COc1ccc(CCNc2nc(NCc3ccc(C(=O)Nc4ccccc4N)cc3)nc(NC3CC3)n2)cc1 [Cpd 476] | – | – | – | – | – | – | IC50 [1, 5]: 2000 nM; IC50 (HCT116 cells; HCT-116, 72 h, Table 5b): 1000 nM; EC50 [2, 6]: 2000 nM
17 | Nc1ccccc1NC(=O)/C=C/c1ccc(CNc2ccc(Cc3ccncc3)cc2)cc1 [Cpd 531, N-(2-Amino-phenyl)-3-{4-[(4-pyridin-4-ylmethyl-phenylamino)-methyl]-phenyl}-acrylamide] | – | – | – | – | 2000 nM | 20000 nM | IC50 ([1]; HDAC-1 IC50, Table 5d): 3000 nM

More lines, main results first:

Row | IC50 [1, 3] | IC50 (HCT116 cells; HCT-116, 72 h, Table 5F) | EC50 [2, 4] | IC50 [1, 7] | IC50 (HCT116 cells; HCT-116, Table 5d) | EC50 [2, 8] | Compound | other results
18 | 2000 nM | 8000 nM | < 1000 nM | – | – | – | Nc1ccccc1NC(=O)c1ccc(CNc2cc(-c3ccccc3)[nH]n2)cc1 [Cpd 468, N-(2-Amino-phenyl)-4-[(5-phenyl-1H-pyrazol-3-ylamino)-methyl]-benzamide] | –
19 | – | – | – | 4000 nM | 9000 nM | 10000 nM | COc1cc(OC)nc(NCc2ccc(/C=C/C(=O)Nc3ccccc3N)cc2)n1 [Cpd 492, N-(2-Amino-phenyl)-3-{4-[(4,6-dimethoxy-pyrimidin-2-ylamino)-methyl]-phenyl}-acrylamide] | –
20 | – | – | – | > 25000 nM | 2000 nM | > 25000 nM | COc1cc(N(Cc2ccc(/C=C/C(=O)Nc3ccccc3N)cc2)Cc2cc3ccccc3[nH]2)cc(OC)c1OC [Cpd 499, N-(2-Amino-phenyl)-3-{4-([(1 H-indol-2-ylmethyl)-(3,4,5-trimethoxy-phenyl)-amino]-methyl}-phenyl)-acrylamide] | –
21 | – | – | – | 4000 nM | 2000 nM | 5000 nM | COc1cc(NC(C)c2ccc(/C=C/C(=O)Nc3ccccc3N)cc2)cc(OC)c1OC (stereo not drawn) [Cpd 518, N-(2-Amino-phenyl)-3-{4-[1-(3,4,5-trimethoxy-phenylamino)-ethyl]-phenyl}-acrylamide] | –
22 | – | – | – | 5000 nM | 2000 nM | 10000 nM | Nc1ccccc1NC(=O)/C=C/c1ccc(NCCNc2ncccn2)nc1 [Cpd 521, N-(2-Amino-phenyl)-3-{6-[2-(pyrimidin-2-ylamino)-ethylamino]-pyridin-3-yl}-acrylamide] | –
23 | – | – | – | 8000 nM | 6000 nM | 10000 nM | COc1cc(N(CCN2CCOCC2)Cc2ccc(/C=C/C(=O)Nc3ccccc3N)cc2)cc(OC)c1OC [Cpd 523, N-(2-Amino-phenyl)-3-(4-{[(2-morpholin-4-yl-ethyl)-(3,4,5-trimethoxy-phenyl)-amino]-methyl}-phenyl)-acrylamide] | –
24 | – | – | – | 3000 nM | 2000 nM | 3000 nM | Nc1ccccc1NC(=O)/C=C/c1ccc(NCc2cccc(O)c2)nc1 [Cpd 524, N-(2-Amino-phenyl)-3-[6-(3-hydroxy-benzylamino)-pyridin-3-yl]-acrylamide] | –
25 | – | – | – | 3000 nM | 4000 nM | 5000 nM | Nc1ccccc1NC(=O)/C=C/c1ccc(NCc2cccc(OCC(F)(F)F)c2)nc1 [Cpd 525, N-(2-Amino-phenyl)-3-{6-[3-(2,2,2-trifluoro-ethoxy)-benzylamino]-pyridin-3-yl}-acrylamide] | –
26 | – | – | – | 2000 nM | 800 nM | 1000 nM | CN1CCN(c2ccc(NCc3ccc(/C=C/C(=O)Nc4ccccc4N)cc3)cc2C(F)(F)F)CC1 [Cpd 526] | –
27 | – | – | – | 11000 nM | 2000 nM | > 25000 nM | COc1cc(/C=C\c2ccc(/C=C/C(=O)Nc3ccccc3N)cc2)cc(OC)c1OC [Cpd 537, N-(2-Amino-phenyl)-3-{4-[2-(3,4,5-trimethoxy-phenyl)-vinyl]-phenyl}-acrylamide] | –
28 | – | – | – | 1000 nM | 400 nM | 15000 nM | CSc1ccc(NCc2ccc(/C=C/C(=O)Nc3ccccc3N)cc2)cc1 [Cpd 556, N-(2-Amino-phenyl)-3-{4-[(4-methylsulfanyl-phenylamino)-methyl]-phenyl}acrylamide] | –
29 | – | – | – | 6000 nM | 600 nM | 2000 nM | COc1cc(NCc2ccc(/C=C/C(=O)Nc3cscc3N)cc2)cc(OC)c1OC [Cpd 570] | –
